Source: patent US20050112573A1, “Method of detecting toxic substance” (priority 2001, published 2005)

Tested on: yeast genes (level of expressed mRNA)
Test: DNA chip analysis of expressed mRNA of yeast genes after 2 h culture with a toxic chemical substance
Assay type: cell-based, Saccharomyces cerevisiae S288C
Details: for The level of expressed mRNA in the presence of chemical substance/ (ratio to absence of chemical substance): stress protein genes, DNA chip
Protocol: Yeast (Saccharomyces cerevtisiae S288C (α SUC2mal mel gap2 CUP1)) were cultured at 25° C. on YPD medium (yeast extract 1%, polypepton 2%, glucose 2%). One of toxic chemical substances was added to the cell at logarithmic growth phase, and the cell was further cultured for two hours. Cell was cultured without any chemical substance in the same condition, and was used as control. Concentrations of the chemical substances were defined to inhibit the growth of the yeast but not lead to death.
After the completion of cultivation, the culture was centrifuged to collect the cells. To the cells, sodium acetate buffer (50 mM sodium acetate, 10 mM EDTA, 1% SDS) was added, and the mixture was shaken at 65° C. for five minutes, followed by returning to room temperature, and obtaining the supernatant, which procedure was repeated two times. To the supernatant, ½ amount of a solution of phenol/chloroform was added, and the mixture was centrifuged to give a supernatant, which was added with an equal amount of chloroform, and the mixture was centrifuged to give a supernatant. To the supernatant, an equal amount of isopropanol containing 0.3 M sodium acetate was added, and the mixture was allowed to stand at room temperature for 30 minutes, after which the mixture was centrifuged to give a sediment of the whole RNAs. Seventy % ethanol was added to the sediment, and the mixture was again centrifuged to give a sediment, which was then dried and dissolved in water. mRNA was isolated from the whole RNAs as followings. In view of the fact that a poly A chain is attached to the 3′ terminus of mRNA, a polynucleotide having a poly T structure which was immobilized on the surface of latex beads was used to trap the mRNA, and then the mRNA was washed and eluted with spine column (Oligotex-dT30<Super>mRNA Purification Kit, Takara). Reverse transcription of the mRNA was conducted with a reverse transcriptase (Super Script II Reverse Transcriptase; catalogue No. 18064-014, GibcoBRL) using fluorescence-labeled nucleotides to give cDNAs that were introduced with Cy3-dUTP or Cy5-dUTP during the reverse transcription.
The labeled cDNAs were dissolved in TE buffer (10 mM Tris-HCl/1 mM EDTA, pH8.0), and the solution was dropped on the DNA chip containing the whole genes of yeast (DNA Chip Research Inc. Japan) so that the cDNAs were hybridized on the DNA chip at 65° C. for over 12 hours. The fluoresces intensity of the DNA chip was read with a scanner, and the ratio relative to the fluorescence intensity resulting from the absence of chemical substance was estimated as the following, which is shown in Tables 1 to 9: [formula]
In the Tables, “Intensity” indicated in the rightmost column is a value of the level of expressed mRNA of each gene in control cells as divided by the average level of the expressions of the whole genes.

C[S+](C)[O-] [(15), dimethylsulfoxide]
The level of expressed mRNA in the presence of chemical substance/The level of expressed mRNA in the absence of chemical substance (yeast gene YJL073W): 2.6
The level of expressed mRNA in the presence of chemical substance/The level of expressed mRNA in the absence of chemical substance (yeast gene YJL089W): 6.4
The level of expressed mRNA in the presence of chemical substance/ (ratio to absence), gene YJL096W (yeast gene YJL096W, mitochondria-located protein genes, 2 h culture with chemical): 1.0
The level of expressed mRNA in the presence of chemical substance/The level of expressed mRNA in the absence of chemical substance (yeast gene YJL116C): 1.0
The level of expressed mRNA in the presence of chemical substance/ (ratio to absence of chemical substance) (yeast gene YJL158C): 1.7
The level of expressed mRNA in the presence of chemical substance/ (in its absence), gene YJL167W (yeast gene YJL167W, ratio of DNA chip fluorescence intensity to that without chemical substance): 1.6
The level of expressed mRNA in the presence of chemical substance/ (ratio to absence), gene YJL180C (yeast gene YJL180C, mitochondria-located protein genes, 2 h culture with chemical): 0.6
The level of expressed mRNA in the presence of chemical substance/ (in its absence), gene YJL216C (yeast gene YJL216C, ratio of DNA chip fluorescence intensity to that without chemical substance): 1.2
The level of expressed mRNA in the presence of chemical substance/The level of expressed mRNA in the absence of chemical substance (yeast gene YJR004C): 3.2
The level of expressed mRNA in the presence of chemical substance/The level of expressed mRNA in the absence of chemical substance (yeast gene YJR086W): 2.0
The level of expressed mRNA in the presence of chemical substance/ (ratio to absence of chemical substance) (yeast gene YJR090C): 1.6
The level of expressed mRNA in the presence of chemical substance/The level of expressed mRNA in the absence of chemical substance (yeast gene YKL008C): 1.3
The level of expressed mRNA in the presence of chemical substance/The level of expressed mRNA in the absence of chemical substance (yeast gene YKL013C): 1.2
The level of expressed mRNA in the presence of chemical substance/The level of expressed mRNA in the absence of chemical substance (yeast gene YKL039W): 3.1
The level of expressed mRNA in the presence of chemical substance/The level of expressed mRNA in the absence of chemical substance (yeast gene YKL041W): 1.0
The level of expressed mRNA in the presence of chemical substance/The level of expressed mRNA in the absence of chemical substance (yeast gene YKL096W): 2.3
The level of expressed mRNA in the presence of chemical substance/The level of expressed mRNA in the absence of chemical substance (yeast gene YKL139W): 1.0
The level of expressed mRNA in the presence of chemical substance/ (ratio to absence of chemical substance) (yeast gene YKL164C): 1.2
The level of expressed mRNA in the presence of chemical substance/The level of expressed mRNA in the absence of chemical substance (yeast gene YKL165C): 2.1
The level of expressed mRNA in the presence of chemical substance/The level of expressed mRNA in the absence of chemical substance (yeast gene YKL193C): 1.2
The level of expressed mRNA in the presence of chemical substance/ (in its absence), gene YKR009C (yeast gene YKR009C, ratio of DNA chip fluorescence intensity to that without chemical substance): 1.0
The level of expressed mRNA in the presence of chemical substance/The level of expressed mRNA in the absence of chemical substance (yeast gene YKR014C): 1.4
The level of expressed mRNA in the presence of chemical substance/ (in its absence), gene YKR034W (yeast gene YKR034W, ratio of DNA chip fluorescence intensity to that without chemical substance): 1.7
The level of expressed mRNA in the presence of chemical substance/ (ratio to absence of chemical substance) (yeast gene YKR053C): 0.3
The level of expressed mRNA in the presence of chemical substance/ in its absence, gene YKR058W (yeast gene YKR058W, energy system protein genes, 2 h culture with the chemical, ratio to control without chemical): 0.5
The level of expressed mRNA in the presence of chemical substance/ (in its absence), gene YLR006C (yeast gene YLR006C, ratio of DNA chip fluorescence intensity to that without chemical substance): 0.9
The level of expressed mRNA in the presence of chemical substance/ (ratio to absence of chemical substance) (yeast gene YLR006C): 0.9
The level of expressed mRNA in the presence of chemical substance/The level of expressed mRNA in the absence of chemical substance (yeast gene YLR093C): 0.9
The level of expressed mRNA in the presence of chemical substance/The level of expressed mRNA in the absence of chemical substance (yeast gene YLR120C): 2.7
The level of expressed mRNA in the presence of chemical substance/The level of expressed mRNA in the absence of chemical substance (yeast gene YLR136C): 2.1
The level of expressed mRNA in the presence of chemical substance/The level of expressed mRNA in the absence of chemical substance (yeast gene YLR178C): 2.3
The level of expressed mRNA in the presence of chemical substance/The level of expressed mRNA in the absence of chemical substance (yeast gene YLR250W): 2.6
The level of expressed mRNA in the presence of chemical substance/ in its absence, gene YLR295C (yeast gene YLR295C, energy system protein genes, 2 h culture with the chemical, ratio to control without chemical): 0.5
The level of expressed mRNA in the presence of chemical substance/ (ratio to absence), gene YLR295C (yeast gene YLR295C, mitochondria-located protein genes, 2 h culture with chemical): 0.5
The level of expressed mRNA in the presence of chemical substance/The level of expressed mRNA in the absence of chemical substance (yeast gene YLR327C): 0.8
The level of expressed mRNA in the presence of chemical substance/ (in its absence), gene YLR351C (yeast gene YLR351C, ratio of DNA chip fluorescence intensity to that without chemical substance): 1.2
The level of expressed mRNA in the presence of chemical substance/The level of expressed mRNA in the absence of chemical substance (yeast gene YLR356W): 2.8
The level of expressed mRNA in the presence of chemical substance/The level of expressed mRNA in the absence of chemical substance (yeast gene YLR362W): 1.3
The level of expressed mRNA in the presence of chemical substance/ (in its absence), gene YLR375W (yeast gene YLR375W, ratio of DNA chip fluorescence intensity to that without chemical substance): 1.3
The level of expressed mRNA in the presence of chemical substance/The level of expressed mRNA in the absence of chemical substance (yeast gene YLR391W): 3.9
The level of expressed mRNA in the presence of chemical substance/The level of expressed mRNA in the absence of chemical substance (yeast gene YLR429W): 1.5
The level of expressed mRNA in the presence of chemical substance/ in its absence, gene YML129C (yeast gene YML129C, energy system protein genes, 2 h culture with the chemical, ratio to control without chemical): 1.1
The level of expressed mRNA in the presence of chemical substance/ (ratio to absence), gene YML129C (yeast gene YML129C, mitochondria-located protein genes, 2 h culture with chemical): 1.1
The level of expressed mRNA in the presence of chemical substance/The level of expressed mRNA in the absence of chemical substance (yeast gene YMR004W): 1.3
The level of expressed mRNA in the presence of chemical substance/ (ratio to absence), gene YMR023C (yeast gene YMR023C, mitochondria-located protein genes, 2 h culture with chemical): 0.7
The level of expressed mRNA in the presence of chemical substance/The level of expressed mRNA in the absence of chemical substance (yeast gene YMR094W): 6.6
The level of expressed mRNA in the presence of chemical substance/The level of expressed mRNA in the absence of chemical substance (yeast gene YMR104C): 2.5
The level of expressed mRNA in the presence of chemical substance/ (ratio to absence of chemical substance) (yeast gene YMR186W): 1.3
The level of expressed mRNA in the presence of chemical substance/The level of expressed mRNA in the absence of chemical substance (yeast gene YMR219W): 1.7
The level of expressed mRNA in the presence of chemical substance/The level of expressed mRNA in the absence of chemical substance (yeast gene YMR226C): 2.0
The level of expressed mRNA in the presence of chemical substance/ in its absence, gene YMR267W (yeast gene YMR267W, energy system protein genes, 2 h culture with the chemical, ratio to control without chemical): 0.9
The level of expressed mRNA in the presence of chemical substance/ (ratio to absence), gene YMR267W (yeast gene YMR267W, mitochondria-located protein genes, 2 h culture with chemical): 0.9
The level of expressed mRNA in the presence of chemical substance/ in its absence, gene YMR267W (yeast gene YMR267W, ratio of DNA chip fluorescence intensity to that without chemical substance): 0.9
The level of expressed mRNA in the presence of chemical substance/The level of expressed mRNA in the absence of chemical substance (yeast gene YMR275C): 1.7
The level of expressed mRNA in the presence of chemical substance/The level of expressed mRNA in the absence of chemical substance (yeast gene YMR276W): 3.3
The level of expressed mRNA in the presence of chemical substance/ (in its absence), gene YMR278W (yeast gene YMR278W, ratio of DNA chip fluorescence intensity to that without chemical substance): 1.8
The level of expressed mRNA in the presence of chemical substance/ (in its absence), gene YMR293C (yeast gene YMR293C, ratio of DNA chip fluorescence intensity to that without chemical substance): 0.7
